The source of these data is paper PMC6156125, “Chemistry and Hypoglycemic Activity of GPR119 Agonist ZB-16” (Frontiers in Endocrinology, 2018).

Series [1] has as its system rats with streptozotocin-nicotinamide (STZ-NA) induced T2D. As to the kind of experiment: Hypoglycemic activity after single oral administration in T2D rat model. The series is classed as in vivo. Particulars: single oral 1 mg/kg, fasted STZ-NA T2D rats, over a 3 h period. Here is the method:
Procedures were performed in 40 female Wistar rats weighing 250–280 g. Streptozotocin-nicotinamide-induced rat model of T2D was used ([24], [25]). Briefly, streptozotocin (Sigma, St. Louis, MO, USA) was administered i.p. to overnight fasted rats (65 mg/kg in 100 mmol/l citrate buffer, Ph 4.5). Nicotinamide (Sigma, St. Louis, MO, USA) (230 mg/kg) dissolved in saline was administered i.p. 15 min before streptozotocin. STZ-NA T2D had been confirmed 72 h after in rats with blood glucose levels in a range 9–14 mmol/l measured in fasting (6 h) conditions. […] […] For OGTT rats received an oral dose of […] glucose dissolved in saline; blood glucose levels were monitored every 30 min for 2 h after glucose administration. Sitagliptin dose was chosen in accordance with published data ([26]).

For series [2] the test system is unchanged. As to the kind of experiment: Hypoglycemic activity after continuous (28 days) oral administration in T2D rat model, OGTT. Type of series: in vivo. How it is done: Procedures were performed in 40 female Wistar rats weighing 250–280 g. Streptozotocin-nicotinamide-induced rat model of T2D was used ([24], [25]). Briefly, streptozotocin (Sigma, St. Louis, MO, USA) was administered i.p. to overnight fasted rats (65 mg/kg in 100 mmol/l citrate buffer, Ph 4.5). Nicotinamide (Sigma, St. Louis, MO, USA) (230 mg/kg) dissolved in saline was administered i.p. 15 min before streptozotocin. STZ-NA T2D had been confirmed 72 h after in rats with blood glucose levels in a range 9–14 mmol/l measured in fasting (6 h) conditions. […] Following the continuous oral administration of sitagliptin (10 mg/kg), ZB-16 (1 mg/kg) or saline during 28 days STZ-NA T2D confirmation the fasting blood glucose levels were measured, and oral glucose tolerance test (OGTT) was performed. For OGTT rats received an oral dose of […] glucose dissolved in saline; blood glucose levels were monitored every 30 min for 2 h after glucose administration. Sitagliptin dose was chosen in accordance with published data ([26]).

A further series addresses T1, hERG potassium channels (Homo sapiens, UniProt Q12809).
T1 construct: purchased Invitrogen Corporation, Carlsbad, CA, USA
Put plainly: Cardiac toxicity, Predictor hERG fluorescence polarization binding. How it is done: Cardiac toxicity was evaluated by estimating the influence of each substance on hERG potassium channels using the in vitro test system Invitrogen® PredictorTM hERG (Invitrogen Corporation, Carlsbad, CA, USA), containing Predictor hERG membrane preparations, fluorescent tracer stock solution and an assay buffer solution. Experimental procedures were conducted in accordance with the PredictorTM hERG test system's manufacturer instructions. Assays were performed in 384-well microplates. Each well contained 5 μL aliquot of each concentration of test compound, 10 μL of (2X) membrane preparation and 5 μL of working tracer solution. The cumulative reaction volume was 20 μl with 1% of DMSO ([19]). All procedures were performed at 4 replicates for each concentration. The plate was allowed to incubate at room temperature for at least 1 h prior to fluorescence polarization measurements performed with a microplate reader Infinite M1000 PRO (Tecan).

A further series deals with T2, CYP3A4 (Homo sapiens, UniProt P08684).
T2 construct: purchased Invitrogen Corporation, Carlsbad, CA, USA
T2 sequence (P08684 whole entry): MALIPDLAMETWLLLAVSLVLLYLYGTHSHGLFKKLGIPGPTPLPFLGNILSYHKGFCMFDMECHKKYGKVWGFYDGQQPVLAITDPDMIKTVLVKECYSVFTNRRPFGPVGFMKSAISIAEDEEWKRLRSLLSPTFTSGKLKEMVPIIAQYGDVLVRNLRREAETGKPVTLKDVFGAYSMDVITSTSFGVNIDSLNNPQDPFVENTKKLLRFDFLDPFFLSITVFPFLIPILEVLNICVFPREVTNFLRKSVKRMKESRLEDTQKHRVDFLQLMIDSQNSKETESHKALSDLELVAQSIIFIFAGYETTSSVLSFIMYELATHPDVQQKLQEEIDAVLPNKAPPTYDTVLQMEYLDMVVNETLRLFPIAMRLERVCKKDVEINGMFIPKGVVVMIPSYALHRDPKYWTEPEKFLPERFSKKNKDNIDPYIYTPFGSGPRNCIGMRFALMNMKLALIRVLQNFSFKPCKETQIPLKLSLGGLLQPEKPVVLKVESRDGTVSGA
As to the kind of experiment: CYP inhibition, Vivid CYP450 Screening Kit. The series is classed as in vitro ADME. The conditions noted are these: 0.0046 to 10 μM tested. Here is the method: (§1) Briefly, the reaction was initiated by adding NADP^+ and a substrate converted to fluorescent derivates by specific CYP isozyme. The reaction was terminated by adding 1M Tris. The fluorescence of the reaction product, which was proportional to CYP isozyme activity, was measured. […] The minimal signal was defined as the signal obtained without enzyme incubation. The inhibitory action of test compounds on the CYP isozymes was expressed in terms of median inhibitory concentration (IC50).

Another series addresses T3, CYP2D6 (Homo sapiens, UniProt P10635).
T3 construct: purchased Invitrogen Corporation, Carlsbad, CA, USA
As to the kind of experiment: CYP inhibition, Vivid CYP450 Screening Kit. Type of series: in vitro ADME. Particulars: 0.0046 to 10 μM tested. How it is done: as §1

The next series has as its target T4, CYP1A2 (Homo sapiens, UniProt P05177).
T4 construct: purchased Invitrogen Corporation, Carlsbad, CA, USA
T4 sequence (P05177 1-516): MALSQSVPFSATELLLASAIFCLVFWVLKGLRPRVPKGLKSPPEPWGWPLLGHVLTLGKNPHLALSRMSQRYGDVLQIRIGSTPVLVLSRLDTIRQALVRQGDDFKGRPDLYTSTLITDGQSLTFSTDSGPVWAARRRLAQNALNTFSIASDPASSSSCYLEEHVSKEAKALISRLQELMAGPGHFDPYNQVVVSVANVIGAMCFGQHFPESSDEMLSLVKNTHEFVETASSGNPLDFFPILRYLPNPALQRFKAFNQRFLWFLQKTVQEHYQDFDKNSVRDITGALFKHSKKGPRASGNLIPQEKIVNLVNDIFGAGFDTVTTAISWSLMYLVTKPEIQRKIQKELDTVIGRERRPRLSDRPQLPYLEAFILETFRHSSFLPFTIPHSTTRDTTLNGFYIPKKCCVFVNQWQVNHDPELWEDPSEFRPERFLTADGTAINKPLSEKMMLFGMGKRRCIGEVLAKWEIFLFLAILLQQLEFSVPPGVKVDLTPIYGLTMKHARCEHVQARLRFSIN
Put plainly: CYP inhibition, Vivid CYP450 Screening Kit. The series is classed as in vitro ADME. The conditions noted are these: 0.0046 to 10 μM tested. How it is done:
as §1

For another series, the target named is T5, CYP2C9 (Homo sapiens, UniProt P11712).
T5 construct: purchased Invitrogen Corporation, Carlsbad, CA, USA
T5 sequence (P11712 whole entry): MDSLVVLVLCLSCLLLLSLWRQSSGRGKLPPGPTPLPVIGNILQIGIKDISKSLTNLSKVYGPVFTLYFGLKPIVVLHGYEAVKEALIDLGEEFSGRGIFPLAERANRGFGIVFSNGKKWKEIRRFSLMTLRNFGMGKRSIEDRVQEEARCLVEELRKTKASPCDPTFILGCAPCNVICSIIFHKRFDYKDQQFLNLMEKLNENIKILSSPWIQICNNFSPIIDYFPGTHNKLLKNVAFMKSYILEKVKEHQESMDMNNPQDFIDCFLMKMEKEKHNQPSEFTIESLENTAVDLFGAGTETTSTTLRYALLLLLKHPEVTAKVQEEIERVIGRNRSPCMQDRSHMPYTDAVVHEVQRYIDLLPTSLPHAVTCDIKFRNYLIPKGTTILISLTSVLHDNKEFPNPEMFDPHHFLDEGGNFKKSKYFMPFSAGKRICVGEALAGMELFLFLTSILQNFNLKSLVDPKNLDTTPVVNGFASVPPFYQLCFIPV
Put plainly: CYP inhibition, Vivid CYP450 Screening Kit. The series is classed as in vitro ADME. The conditions noted are these: 0.0046 to 10 μM tested. How it is done: as §1

In a further series the target is T6, CYP2C19 (Homo sapiens, UniProt P33261).
T6 construct: purchased Invitrogen Corporation, Carlsbad, CA, USA
T6 sequence (P33261 whole entry): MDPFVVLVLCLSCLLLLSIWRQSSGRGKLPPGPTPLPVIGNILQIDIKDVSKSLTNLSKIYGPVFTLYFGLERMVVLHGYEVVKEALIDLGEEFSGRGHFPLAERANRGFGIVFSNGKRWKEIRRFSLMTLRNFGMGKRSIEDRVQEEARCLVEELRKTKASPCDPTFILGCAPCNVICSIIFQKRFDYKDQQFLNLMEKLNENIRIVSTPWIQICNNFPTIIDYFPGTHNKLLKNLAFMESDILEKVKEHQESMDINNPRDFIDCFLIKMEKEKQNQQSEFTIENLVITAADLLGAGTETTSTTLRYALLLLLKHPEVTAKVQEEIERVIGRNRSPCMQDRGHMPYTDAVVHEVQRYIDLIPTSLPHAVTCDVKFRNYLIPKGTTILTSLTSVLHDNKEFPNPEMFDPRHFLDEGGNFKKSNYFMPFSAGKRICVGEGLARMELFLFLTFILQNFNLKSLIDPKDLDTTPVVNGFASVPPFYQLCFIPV
Put plainly: CYP inhibition, Vivid CYP450 Screening Kit. The series is classed as in vitro ADME. Particulars: 0.0046 to 10 μM tested. Here is the method:
as §1

The test system of series [3] is intact fasted female Wistar rats. As to the kind of experiment: Hypoglycemic action in intact rats after single oral administration. Type of series: in vivo, rat. Particulars: 0.1–1 mg/kg oral. How it is done: Blood glucose levels were evaluated in the peripheral blood (from the tail vein) of intact fasted (6 h) female Wistar rats using a glucometer Contour TS (Bayer, Germany) at 60, 120, and 180 min after single oral administration of each ZB-09 analogs (in doses of 0.1, 1, and 10 mg/kg). The female animals were used because of their advantages in toxicological studies shown by several authors ([23]).

T1 sequence (Q12809 whole entry): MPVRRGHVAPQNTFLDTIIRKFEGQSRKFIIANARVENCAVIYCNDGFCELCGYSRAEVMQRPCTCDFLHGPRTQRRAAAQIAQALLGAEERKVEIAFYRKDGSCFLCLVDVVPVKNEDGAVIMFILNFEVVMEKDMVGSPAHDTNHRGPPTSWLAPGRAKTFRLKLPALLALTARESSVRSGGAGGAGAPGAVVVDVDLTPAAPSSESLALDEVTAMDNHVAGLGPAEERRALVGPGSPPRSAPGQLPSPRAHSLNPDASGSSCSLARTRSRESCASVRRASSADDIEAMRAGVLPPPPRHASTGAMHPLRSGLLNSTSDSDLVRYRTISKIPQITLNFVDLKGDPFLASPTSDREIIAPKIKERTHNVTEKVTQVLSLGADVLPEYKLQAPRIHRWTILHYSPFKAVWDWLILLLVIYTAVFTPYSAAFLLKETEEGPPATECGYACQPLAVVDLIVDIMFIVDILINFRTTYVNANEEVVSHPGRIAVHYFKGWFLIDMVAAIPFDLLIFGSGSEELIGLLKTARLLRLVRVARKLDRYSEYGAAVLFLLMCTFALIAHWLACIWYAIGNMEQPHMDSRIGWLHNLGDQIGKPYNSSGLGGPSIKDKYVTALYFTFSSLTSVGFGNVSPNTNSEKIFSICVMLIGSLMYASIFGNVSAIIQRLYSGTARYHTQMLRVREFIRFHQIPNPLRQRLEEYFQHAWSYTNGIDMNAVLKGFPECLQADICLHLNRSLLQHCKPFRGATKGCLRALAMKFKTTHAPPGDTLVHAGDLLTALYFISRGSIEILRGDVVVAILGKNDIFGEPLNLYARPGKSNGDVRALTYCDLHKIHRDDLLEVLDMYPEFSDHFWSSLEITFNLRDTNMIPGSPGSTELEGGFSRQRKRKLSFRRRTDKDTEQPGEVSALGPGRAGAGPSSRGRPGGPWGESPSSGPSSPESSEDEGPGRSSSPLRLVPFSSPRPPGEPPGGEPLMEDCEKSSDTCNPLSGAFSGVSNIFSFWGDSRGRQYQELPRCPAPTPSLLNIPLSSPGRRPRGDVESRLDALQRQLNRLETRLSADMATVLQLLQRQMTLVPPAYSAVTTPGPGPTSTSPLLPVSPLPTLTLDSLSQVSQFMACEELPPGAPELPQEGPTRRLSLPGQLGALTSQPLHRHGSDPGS
T3 sequence (P10635 whole entry): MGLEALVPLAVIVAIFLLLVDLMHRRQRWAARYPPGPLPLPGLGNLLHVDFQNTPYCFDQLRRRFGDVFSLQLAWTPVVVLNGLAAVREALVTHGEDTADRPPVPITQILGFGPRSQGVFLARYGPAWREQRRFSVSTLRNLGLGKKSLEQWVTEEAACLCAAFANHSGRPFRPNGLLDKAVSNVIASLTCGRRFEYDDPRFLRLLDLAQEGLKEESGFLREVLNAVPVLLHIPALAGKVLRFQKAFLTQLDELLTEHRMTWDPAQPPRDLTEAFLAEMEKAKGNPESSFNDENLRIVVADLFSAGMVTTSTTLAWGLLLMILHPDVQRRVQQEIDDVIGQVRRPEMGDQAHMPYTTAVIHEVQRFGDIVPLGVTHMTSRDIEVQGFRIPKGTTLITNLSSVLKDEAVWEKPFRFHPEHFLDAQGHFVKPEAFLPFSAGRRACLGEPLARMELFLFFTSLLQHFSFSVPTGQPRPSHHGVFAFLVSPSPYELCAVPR

For `O=S1(=O)COc2cc(-c3ccc(OCC4CCN(c5ncc(Cl)cn5)CC4)c(F)c3)ccc21` [ZB-16], the “decrease of blood glucose levels” value in [1] is 24%. Also, the “reduction in the area under the glucose concentration-time curve compared to the control group” value in [2] (OGTT on day 28, 1 mg/kg/day oral) was 22%. The “blood glucose levels lower than in saline group” value in [2] (OGTT on day 28, 1 mg/kg/day oral, 30 min after oral glucose (3 mg/kg)) is 27%. Besides, in series [2] (OGTT on day 28, 1 mg/kg/day oral, two hours after glucose administration), the “mean blood glucose level” value stood at 9.1 ± 0.37 mmol/L. Moreover, the blood glucose levels result in series [2] (daily oral ZB-16 1 mg/kg or sitagliptin 10 mg/kg for 28 days, STZ-NA T2D) is listed as “reduction”. The entries for the “Average polarization mP (n = 4)” value on hERG potassium channels (1 μM) and at hERG potassium channels (10 μM) were 264 mP and 244 mP, respectively. Moreover, the “Unbound hERG %” value on hERG potassium channels (1 μM) is reported as 89%; at hERG potassium channels (10 μM), 77%. Moreover, the IC50 against CYP3A4, against CYP2D6, at CYP1A2, against CYP2C9 and against CYP2C19 was > 10 µM in each case. In addition, the “blood glucose levels after single oral administration” value in [3] is “significant decrease”.
